The test system of assay [1] is wheat. Put plainly: Test C postemergence herbicide test. It is filed as in vivo, Triticum aestivum. In a few lines: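 Injury scored visually against controls on a 0 (no effect) to 100 (complete control) scale, 12 to 14 days after treatment in greenhouse. Flooded paddy plants treated at 2-leaf stage; postemergence plants at 1- to 4-leaf stage, 2 to 18 cm tall.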
In assay [2] the test system is itchgrass. As to the kind of experiment: Test E pre-/postemergence herbicide test. It is filed as in vivo, Rottboellia cochinchinensis. As to conditions: Preemergence. The source says:
(§1) Seeds of plant species selected from bipinnate beggarticks (Bidens bipinnata L.), hairy beggarticks (Bidens radiata Thuill.), bermudagrass (Cynodon dactylon (L.) Pers.), Surinam grass (Urochloa decumbens (Staph) R. D. Webster, previously named Brachiaria decumbens Stapf), large crabgrass (Digitaria sanguinalis (L.) Scop.), green foxtail (Setaria viridis (L.) P. Beauv.), goosegrass (Eleusine indica (L.) Gaertn.), johnsongrass (Sorghum halepense (L.) Pers.), kochia (Kochia scoparia (L.) Schrad.), pitted morningglory (Ipomoea lacunosa L.), purple nutsedge (Cyperus rotundus L.), common ragweed (Ambrosia elatior L.), mustard (Brassica nigra (L.) W. D. J. Koch), guineagrass (Panicum maximum Jacq.), dallisgrass (Paspalum dilatatum Poir.), barnyardgrass (Echinochloa crus-galli (L). P. Beauv.), southern sandbur (Cenchrus echinatus L.), common sowthistle (Sonchus oleraceous L.), prickly sida (Sida spinosa L.), Italian ryegrass (Lolium multiflorum Lam.), common purslane (Portulaca oleracea L.), broadleaf signalgrass (Brachiaria platyphylla (Griseb.) Nash), common groundsel (Senecio vulgaris L.), common chickweed (Stellaria media (L.) Vill/Cyr.), tropical spiderwort (Commelina benghalensis L.), annual bluegrass (Poa annua L.), downy bromegrass (Bromus tectorum L.), itchgrass (Rottboellia cochinchinensis (L.) L.f.), quackgrass (Elytrigia repens (L.) Nevski), Canada horseweed (Erigeron Canadensis L.), field bindweed (Convolvulus arvensis L.), spotted spurge (Euphorbia maculata L.), common mallow (Malva sylvestris (=s silvestris) L.), and Russian thistle (Salsola kali L. ssp. Ruthenica (Iljin) Soo) were planted and treated preemergence with test chemicals formulated in a non-phytotoxic solvent mixture which included a surfactant.
(§2) At the same time, plants selected from these weed species were treated with postemergence applications of some of the test chemicals formulated in the same manner. Plants ranged in height from 2 to 18 cm (1- to 4-leaf stage) for postemergence treatments. Treated plants and controls were maintained in a greenhouse for 12 to 14 days, after which time all species were compared to controls and visually evaluated. Plant response ratings, summarized in Table E, are based on a scale of 0 to 100 where 0 is no effect and 100 is complete control. A dash (-) response means no test result.

The subject of assay [3] is mustard. Put plainly: Test E pre-/postemergence herbicide test. To be noted: Preemergence. The format is in vivo, Brassica nigra.
Text: as §1, §2

Assay [4] relates to goosegrass. As to the kind of experiment: Test E pre-/postemergence herbicide test. It is filed as in vivo, Eleusine indica. As to conditions: Preemergence.
Text: as §1, §2

In assay [5] the test system is bermudagrass. As to the kind of experiment: Test E pre-/postemergence herbicide test. To be noted: Preemergence. The format is in vivo, Cynodon dactylon.
Text: as §1, §2

The test system of assay [6] is pitted morningglory. Put plainly: Test E pre-/postemergence herbicide test. The format is in vivo, Ipomoea lacunosa. To be noted: Preemergence.
Text: as §1, §2

Assay [7] deals with barnyardgrass. Put plainly: Test E pre-/postemergence herbicide test. To be noted: Preemergence. It is filed as in vivo, Echinochloa crus-galli.
Text: as §1, §2

Assay [8] relates to common ragweed. Put plainly: Test E pre-/postemergence herbicide test. It is filed as in vivo, Ambrosia elatior. As to conditions: Preemergence.
Text: as §1, §2

Assay [9] relates to field bindweed. Put plainly: Test E pre-/postemergence herbicide test. The format is in vivo, Convolvulus arvensis. To be noted: Preemergence.
Text: as §1, §2

Assay [10] relates to guineagrass. As to the kind of experiment: Test E pre-/postemergence herbicide test. The format is in vivo, Panicum maximum. As to conditions: Preemergence.
Text: as §1, §2

Assay [11] deals with broadleaf signalgrass. Put plainly: Test E pre-/postemergence herbicide test. It is filed as in vivo, Brachiaria platyphylla. As to conditions: Preemergence.
Text: as §1, §2

Setting [12] is: Postemergence, 250 g ai/ha, scale 0 to 100, 0 no effect, 100 complete control.
Where [13] appears, read: postemergence, 125 g ai/ha, scale 0 to 100.
[14] abbreviates: postemergence, 62 g ai/ha, scale 0 to 100.
[15] abbreviates: 250 g ai/ha, scale 0 (no effect) to 100 (complete control).
Where [16] appears, read: 500 g ai/ha, scale 0 (no effect) to 100 (complete control).
Where [17] appears, read: Postemergence, 500 g ai/ha, scale 0 to 100, 0 no effect, 100 complete control.
[18] abbreviates: Postemergence, 500 g ai/ha, scale 0 to 100.

In the case of `CCOC(=O)c1cccc(NC(=O)c2cc(C3(C)CC3)nn2CC)c1` [Compound 295], the “Plant response rating, Wheat” value in assay [1] (setting [12]), in assay [1] (setting [13]) and in assay [1] (setting [14]) was 45 in each case.

With `CCN1N=C(C(C)(C)C)CC1C(=O)Nc1cc(C(=O)N(C)C)ccc1F` (stereo not shown) [Compound 268, N-[5-[(dimethylamino)carbonyl]-2-fluorophenyl]-3-(1,1-dimethylethyl)-1-ethyl-4,5-dihydro-1H-pyrazole-5-carboxamide], the “Plant response rating, Itchgrass” value is reported as 50 in [2] (62 g ai/ha, scale 0 to 100); 60 in assay [2] (125 g ai/ha, scale 0 to 100); 75 in assay [2] (setting [15]); 95 in assay [2] (setting [16]). In addition, the “Plant response rating, Black Mustard” value in [3] (62 g ai/ha, scale 0 to 100) worked out at 90; in [3] (125 g ai/ha, scale 0 to 100), 100; in [3] (setting [15]) it was 100; in [3] (setting [16]) it was 100. The “Plant response rating, Goosegrass” value in assay [4] (62 g ai/ha, scale 0 to 100) stood at 70; in [4] (125 g ai/ha, scale 0 to 100) it was 80; in assay [4] (setting [15]), 95; in assay [4] (setting [16]), 95. The “Plant response rating, Bermudagrass” value in assay [5] (62 g ai/ha, scale 0 to 100) was 60; in assay [5] (125 g ai/ha, scale 0 to 100) it was 90; in assay [5] (setting [15]) it was 95; in [5] (setting [16]) it was 100. Besides, the “Plant response rating, Morningglory” value in assay [6] (62 g ai/ha, scale 0 to 100) worked out at 10; in [6] (125 g ai/ha, scale 0 to 100) it was 10; in assay [6] (setting [15]) it was 40; in [6] (setting [16]) it was 60. Also, the “Plant response rating, Barnyardgrass” value is reported as 60 in assay [7] (62 g ai/ha, scale 0 to 100); 85 in assay [7] (125 g ai/ha, scale 0 to 100); 100 in assay [7] (setting [15]); 100 in assay [7] (setting [16]). Further, the “Plant response rating, Ragweed” value in [8] (62 g ai/ha, scale 0 to 100) is recorded as 50; in assay [8] (125 g ai/ha, scale 0 to 100), 60; in [8] (setting [15]), 100; in [8] (setting [16]), 100. The “Plant response rating, Bindweed, Field” value is 0 in assay [9] (62 g ai/ha, scale 0 to 100); 20 in assay [9] (125 g ai/ha, scale 0 to 100); 40 in assay [9] (setting [15]); 70 in [9] (setting [16]). Moreover, the “Plant response rating, Guineagrass” value in [10] (62 g ai/ha, scale 0 to 100) was found to be 70; in assay [10] (125 g ai/ha, scale 0 to 100), 85; in assay [10] (setting [15]), 100; in [10] (setting [16]), 100. The entries for the “Plant response rating, Wheat” value in assay [1] (setting [12]), in assay [1] (setting [13]) and in [1] (setting [14]) were 25, 0 and 0, respectively. Further, the “Plant response rating, Signalgrass” value in assay [11] (62 g ai/ha, scale 0 to 100) is given as 20; in assay [11] (125 g ai/ha, scale 0 to 100) it was 60; in assay [11] (setting [15]) it was 80; in [11] (setting [16]), 80.

Regarding `CCn1nc(C(C)(C)C)cc1C(=O)Nc1cccc(OS(=O)(=O)CC)c1` [Compound 408], the “Plant response rating, Wheat” value in [1] (setting [17]) amounted to 40; in assay [1] (setting [13]), 30; in [1] (setting [14]) it was 30.

For `CCCCOc1cccc(NC(=O)c2cc(C(C)(C)C)nn2CC)c1` [Compound 137], the “Wheat plant response rating” value in assay [1] (setting [18]) stood at 40. Besides, the “Plant response rating, Wheat” value in [1] (setting [12]), in assay [1] (setting [13]) and in assay [1] (setting [14]) was 30 each time.

For `CCn1nc(C(C)(C)C)cc1C(=O)Nc1cccc(C(=O)NCC2CC2)c1` [Compound 62], the “Plant response rating, Wheat” value in assay [1] (setting [12]), in assay [1] (setting [13]) and in assay [1] (setting [14]) was 10 each time.

With `CCn1nc(C(C)(C)C)cc1C(=O)Nc1cc(OC(F)(F)F)ccc1F` [Compound 338], the “Plant response rating, Wheat” value is reported as 35 in assay [1] (setting [12]), 45 in assay [1] (setting [17]), 25 in [1] (setting [13]) and 25 in assay [1] (setting [14]).

Turning to `CCn1nc(C2(C)CC2)cc1C(=O)Nc1cc(C(=O)N2CC=CC2)ccc1F` [Compound 301], in assay [1] (setting [18]), the “Wheat plant response rating” value worked out at 40. Besides, the figures for the “Plant response rating, Wheat” value in assay [1] (setting [12]), in [1] (setting [13]) and in [1] (setting [14]) were 55, 45 and 40, respectively.

The record behind these values is patent US20060069132A1, “Azolecarboxamide herbicides” (priority 2004, published 2006).
